This note sets out measurements from US10047084B2, “Imidazolone derivatives, pharmaceutical compositions and uses thereof” (BEIJING FORELANDPHARMA CO. LTD., priority 2013, dated 2018).

A word on the EC50: it is the concentration that produces a half-maximal response.

Assay [1] has as its system PC-3. As to the kind of experiment: CTG cell survival assay, PC-3. The settings on record: Homo sapiens, PC-3 cells. Type of assay: cell-based. Put shortly: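 Cells were exposed to compounds in a 3-fold dilution series, with a top final concentration of 10 uM in 0.1% DMSO. Viable cells were quantified by CellTiter-Glo ATP luminescence.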
Assay [2] deals with MV-4-11. As to the kind of experiment: CTG cell survival assay, MV-4-11. It is filed as cell-based. The settings on record: Homo sapiens, MV4-11, MV-4-11 cells. Put shortly:
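Cells grown in RPMI 1640 with 10% FBS were plated and cultured 24 h at 37 °C, 5% CO2, then treated with compound diluted from 10 mM DMSO stocks. Viable cells were quantified as ATP by CellTiter-Glo luminescence.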

Bounds are passed on as bounds.

For `Cn1cc(-c2ccc(-c3ccc4ncc5c(c4c3)n(C3CCCN(S(C)(=O)=O)C3)c(=O)n5C)cn2)cn1` (centres unmarked) [Example 3, 3-methyl-8-(6-(1-methyl-1H-pyrazol-4-yl)pyridin-3-yl)-1-(1-(methanesulfonyl)piperidin-3-yl)-1H-imidazo[4,5-c]quinolin-2(3H)-one], the EC50 is less than 50 nM in assay [1] and less than 200 nM in assay [2].
With `Cn1cc(-c2ccc(-c3ccc4ncc5c(c4c3)n([C@H]3CC[C@@H](O)CC3)c(=O)n5C)cn2)cn1` [Example 18, 1-((1s,4s)-4-hydroxycyclohexyl)-3-methyl-8-(6-(1-methyl-1H-pyrazol-4-yl)pyridin-3-yl)-1H-imidazo[4,5-c]quinolin-2(3H)-one], the EC50 in assay [1] was less than 50 nM; in assay [2] it was less than 100 nM.
Consider `Cn1cc(-c2ccc(-c3ccc4ncc5c(c4c3)n([C@H]3CCN(S(C)(=O)=O)C3)c(=O)n5C)cn2)cn1` [Example 28, (S)-3-methyl-8-(6-(1-methyl-1H-pyrazol-4-yl)pyridin-3-yl)-1-(1-(methanesulfonyl)pyrrolidin-3-yl)-1H-imidazo[4,5-c]quinolin-2(3H)-one], for which the concentration for a half-maximal effect (EC50) was less than 50 nM in assay [1] and less than 100 nM in assay [2].
For `Cn1cc(-c2ccc(-c3ccc4ncc5c(c4c3)n([C@@H]3CCCN(S(C)(=O)=O)C3)c(=O)n5C)cn2)cn1` [Example 31, (R)-3-methyl-8-(6-(1-methyl-1H-pyrazol-4-yl)pyridin-3-yl)-1-(1-(methanesulfonyl)piperidin-3-yl)-1H-imidazo[4,5-c]quinolin-2(3H)-one], the figures for the EC50 in assay [1] and in assay [2] were 19 nM and less than 100 nM, respectively.
